The source of these data is patent US20040002444A1, “Polyphosphate-water soluble collagen complexes and process for preparation thereof” (Toshikazu SHIBA, priority 2002, published 2004).

Assay [1] relates to alveolar bone of rats (artificial periodontal pockets). As to the kind of experiment: Regeneration of the periodontal tissue in rats (Example 3). Particulars: approx. 0.1 ml injected into gingival crevices everyday, up to 3 weeks; light microscope. Format: in vivo, Wister male rats. How it is done: Next, to confirm the effect of the prepared polyphosphate-collagen complex in regenerating the periodontal tissue, an experiment for the regeneration of the periodontal tissue was performed using rats. Wister male rats (8 weeks old; 18 rats in total) were anesthetized. Then, using a ½ round bar, approximately 2 mm portions were removed from the buccal alveolar bone crest of the mandibular first and second molars, and artificial periodontal pockets (gingival crevices) were formed. In the treated group (9 rats), approximately 0.1 ml of the polyphosphate-collagen complexes prepared in Example 2 was injected using a syringe into the thus formed gingival crevices. In the comparison group (9 rats), only the collagen was injected. The injection procedure was performed everyday from the day following the operation to prepare the gingival crevice, and continued for 3 weeks at the longest.
The rats treated for a certain period were euthanized by inhalation anesthesia (enflurane), and the tissues were fixed by perfusion fixation. Perfusion fixation was performed by letting 300 ml of physiological saline and then 10% neutral buffered formalin solution (pH 7.4, 500 ml) to flow through the blood vessel. […] In addition, the area of the regenerated alveolar bone was measured as the area of bone formation by calculating the sum of the bone areas in the sections with image processing.

The test system is the same in assay [2]. As to the kind of experiment: Regeneration of the periodontal tissue in rats, influence of polyphosphate chain length (Example 4). Format: in vivo, Wister male rats. Particulars: measured at 15 days after operation; for area of the regenerated alveolar bone: approx. 0.1 ml injected into gingival crevices once a day for 14 days. How it is done: Next, an experiment of the regeneration of the periodontal tissue in rats was performed using the 3 prepared types of polyphosphate-collagen complexes. In a manner similar to Example 3, Wister male rats (8 weeks old) were anesthetized. Then, using a ½ round bar, approximately 2 mm portions were removed from the buccal alveolar bone crest of the mandibular first and second molars, and artificial periodontal pockets (gingival crevices) were formed. In the treated group, approximately 0.1 ml of either one type of the above polyphosphate-collagen complexes was injected using a syringe into the thus formed gingival crevices. The treated groups were: treated group 1 that was treated with the polyphosphate-collagen complex containing polyphosphates having an average chain length of 15; treated group 2 that was treated with the polyphosphate-collagen complex containing polyphosphates having an average chain length of 35; and treated group 3 that was treated with the polyphosphate-collagen complex containing polyphosphates having an average chain length of 75. The comparison groups were: comparison group 1 that was treated only with collagen and comparison group 2 that was treated with a mixed solution of a sodium phosphate buffer and collagen. Injection (approximately 0.1 ml) into the gingival crevices of each group was performed similarly to that for the treated groups. For all the groups, 3 rats were used per group. In addition, the injection was performed once a day and everyday from the day following the operation to prepare the gingival crevice, and was continued for 14 days.
After the above treatment, at 15 days after the operation to prepare the gingival crevice, tissue sections (samples) were prepared in a manner similar to that in Example 3 from the rats of each group, and then the area of the formed alveolar bone was measured. The areas of the regenerated alveolar bones as measured for rat individuals included in 3 treated groups and 2 comparison groups are as shown in Table 1.

On to collagen [Comparison group 1], for which the “staining of the tissues: regeneration of alveolar bone (FIG. 2)” value in assay [1] was “no increase was observed in the alveolar bone”. Moreover, the entries for the “area of the regenerated alveolar bone” value in assay [2] (Individual 1), in assay [2] (Individual 2) and in assay [2] (Individual 3) were 0.5422 mm^2, 0.5909 mm^2 and 0.6569 mm^2, respectively. For the same substance, in assay [2] (average of 3 rats per group, approx. 0.1 ml injected once a day for 14 days), the “area of the regenerated alveolar bone, Average” value is on record as 0.5967 mm^2.
